From ChEMBL document CHEMBL4715764, “ArgTX-636, a polyamine isolated from spider venom: A novel class of melanogenesis inhibitors” (Bioorg Med Chem, 2016) come the findings set out here.

Activity calls are given as the source filed them. The calls are words filed in the database; no cut-off is given here.

The target in data set [1] is T1, Mushroom tyrosinase (Agaricus bisporus, UniProt O42713+Q00024+C7FF04+C7FF05).
Description: Inhibition of diphenolase activity of mushroom tyrosinase using L-DOPA substrate
The test system of data set [2] is B16-F10. The data set is described as follows: Inhibition of melanin production in mouse B16-F10 cells incubated for 48 hrs. The following applies: dose 0-0.0421 µM. The format is functional, cell-based.
The subject of data set [3] is B16-F10. Description: Reduction in alpha-MSH-induced TRP-1 expression in mouse B16-F10 cells at 0.041 uM incubated for 48 hrs by Western blot analysis. The data set is classed as functional, cell-based.
The test system of data set [4] is B16-F10. The data set is described as follows: Cytotoxicity against mouse B16-F10 cells assessed as reduction in cell viability at 42.1 uM incubated for 6 hrs by MTT assay. The following applies: b16-f10, 6 h. The data set is classed as cell-based.
Data set [5] has as its target T2, Mushroom tyrosinase (Agaricus bisporus) (UniProt O42713+Q00024+C7FF04+C7FF05). The data set is described as follows: (§1) Inhibition of mushroom tyrosinase using L-DOPA as substrate measured for 15 mins by UV-vis spectrophotometry.
For data set [6], the target named is T1, Mushroom tyrosinase. The description is as §1.
For data set [7], the target named is T1, Mushroom tyrosinase. Description: Mixed type inhibition of mushroom tyrosinase using L-DOPA as substrate assessed as enzyme-substrate complex constant measured for 15 mins by UV-vis spectrophotometry based Line-weaver Burk plot analysis.
In data set [8] the target is T2, Mushroom tyrosinase (Agaricus bisporus). The data set is described as follows: (§2) Inhibition of mushroom tyrosinase using DHICA as substrate measured for 15 mins by UV-vis spectrophotometry.
In data set [9] the target is T1, Mushroom tyrosinase. The description is as §2.
The subject of data set [10] is B16-F10. Description: Reduction in alpha-MSH-induced tyrosinase expression in mouse B16-F10 cells at 0.041 uM incubated for 48 hrs by Western blot analysis. The format is functional, cell-based.
Data set [11] has as its target T1, Mushroom tyrosinase. The data set is described as follows: Mixed type inhibition of mushroom tyrosinase using L-DOPA as substrate assessed as inhibitory constant measured for 15 mins by UV-vis spectrophotometry based Line-weaver Burk plot analysis.
The target of data set [12] is T3, Tyrosinase (Mus musculus) (UniProt P11344).
T3 sequence (whole entry): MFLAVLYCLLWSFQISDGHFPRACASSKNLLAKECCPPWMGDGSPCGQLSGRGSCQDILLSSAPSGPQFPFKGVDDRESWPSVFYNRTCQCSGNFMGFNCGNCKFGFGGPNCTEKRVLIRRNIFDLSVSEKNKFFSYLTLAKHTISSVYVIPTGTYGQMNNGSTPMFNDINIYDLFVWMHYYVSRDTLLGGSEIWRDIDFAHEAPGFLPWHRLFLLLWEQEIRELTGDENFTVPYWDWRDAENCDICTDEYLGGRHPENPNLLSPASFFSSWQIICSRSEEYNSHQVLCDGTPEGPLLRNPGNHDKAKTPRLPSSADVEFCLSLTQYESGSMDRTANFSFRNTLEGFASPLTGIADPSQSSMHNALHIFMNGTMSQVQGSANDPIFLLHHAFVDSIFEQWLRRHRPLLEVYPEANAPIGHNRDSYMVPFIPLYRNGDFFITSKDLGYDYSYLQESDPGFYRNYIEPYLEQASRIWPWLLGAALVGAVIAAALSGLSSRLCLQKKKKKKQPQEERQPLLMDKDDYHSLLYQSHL
The data set is described as follows: Inhibition of tyrosinase in mouse B16-F10 cells at 0.421 uM using L-DOPA as substrate incubated for 30 mins followed by substrate addition and measured after 40 mins. The data set is classed as cell-based. The following applies: time 70.0 min.

Data set [13] has as its system M4Beu cell line. The data set is described as follows: Cytotoxicity against human M4Be cells assessed as reduction in cell viability at 42.1 uM incubated for 6 hrs by MTT assay. The format is cell-based.

For the molecule `CC1(C)S[C@@H]2[C@H](NC(=O)[C@H](N)c3ccc(O)cc3)C(=O)N2[C@H]1C(=O)O` [AMOXICILLIN], the IC50 in data set [1] was found to be 9000 µM.
On the same count and under the same terms, under `S=C1NCC(c2ccccc2)O1` (configuration not stated) stands 42 µM; under `OC1COC(O)C(O)C1O` (racemic), 100 µM; under `O=C(O)/C=C/c1ccc(Cn2ccnc2)cc1` [OZAGREL], 3450 µM.
On the same count and under the same terms, under `CC1(C)C=Cc2c(cc3c(c2O)C(=O)CC(c2ccc(O)cc2O)O3)O1` (configuration not stated) [DALENIN] stands 18.61 µM.
For `N=C(N)NCCC[C@H](N)C(=O)NCCCNCCCNCCCCCNC(=O)[C@H](CC(N)=O)NC(=O)Cc1ccc(O)cc1O`, the inhibition result in data set [2], in data set [5] and in data set [8] was “Dose-dependent effect” throughout. In addition, the inhibition result in data set [3] and in [12] was “Active” in each case. Moreover, the Activity result in data set [4] and in data set [13] was “Non-Toxic” each time. Also, the IC50 in data set [6] turned out to be 8.34 µM; in data set [9], 48.22 µM. The values for the Ki in [7] and in data set [11] were 20.36 µM and 10.77 µM, respectively. Moreover, the inhibition result in [10] is “inactive”.
